Experimental data published in ChEMBL document CHEMBL6182920, “The Discovery of C7-Substituted Norbornyl Bisamides as RXFP1 Small Molecule Agonists” (J Med Chem, 2025).
Values after ≈ are worked out from the molar mass of the structure shown.

Experiments:
[1] = Volume of distribution at steady state in Sprague-Dawley rat at 1 mg/kg, iv; assay type: ADME, organism-based; conditions: in vivo, read-out: Vdss
Cytochrome P450 1A2 = target: T1, Cytochrome P450 1A2 (Homo sapiens, UniProt P05177); experiment: Inhibition of CYP1A2 (unknown origin)
T1 sequence (P05177 whole entry): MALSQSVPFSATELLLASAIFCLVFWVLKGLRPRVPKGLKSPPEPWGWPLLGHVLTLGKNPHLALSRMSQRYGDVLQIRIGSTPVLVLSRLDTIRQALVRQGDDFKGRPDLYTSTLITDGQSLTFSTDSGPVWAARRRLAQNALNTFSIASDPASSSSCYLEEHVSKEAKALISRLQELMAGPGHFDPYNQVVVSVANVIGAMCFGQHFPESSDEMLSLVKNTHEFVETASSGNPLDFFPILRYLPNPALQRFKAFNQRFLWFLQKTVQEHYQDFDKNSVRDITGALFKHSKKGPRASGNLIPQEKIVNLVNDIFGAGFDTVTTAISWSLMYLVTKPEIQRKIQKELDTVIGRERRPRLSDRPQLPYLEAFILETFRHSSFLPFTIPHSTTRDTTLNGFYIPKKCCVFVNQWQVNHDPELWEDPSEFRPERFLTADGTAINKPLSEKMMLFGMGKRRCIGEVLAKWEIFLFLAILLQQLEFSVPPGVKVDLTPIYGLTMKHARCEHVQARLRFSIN

Rattus norvegicus = experiment: Chronotropic effect in isoflurane-anesthetized male naive Sprague-Dawley rat model assessed as increase in heart rate at 5 mg/kg/min, iv measured after 60 mins; assay type: functional; conditions: 1 h
[2] = Total AUC in Sprague-Dawley rat at 1 mg/kg, iv; assay type: ADME, organism-based; conditions: in vivo
Cytochrome P450 2C8 = target: T2, Cytochrome P450 2C8 (Homo sapiens, UniProt P10632); experiment: Inhibition of CYP2C8 (unknown origin)
T2 sequence (P10632 whole entry): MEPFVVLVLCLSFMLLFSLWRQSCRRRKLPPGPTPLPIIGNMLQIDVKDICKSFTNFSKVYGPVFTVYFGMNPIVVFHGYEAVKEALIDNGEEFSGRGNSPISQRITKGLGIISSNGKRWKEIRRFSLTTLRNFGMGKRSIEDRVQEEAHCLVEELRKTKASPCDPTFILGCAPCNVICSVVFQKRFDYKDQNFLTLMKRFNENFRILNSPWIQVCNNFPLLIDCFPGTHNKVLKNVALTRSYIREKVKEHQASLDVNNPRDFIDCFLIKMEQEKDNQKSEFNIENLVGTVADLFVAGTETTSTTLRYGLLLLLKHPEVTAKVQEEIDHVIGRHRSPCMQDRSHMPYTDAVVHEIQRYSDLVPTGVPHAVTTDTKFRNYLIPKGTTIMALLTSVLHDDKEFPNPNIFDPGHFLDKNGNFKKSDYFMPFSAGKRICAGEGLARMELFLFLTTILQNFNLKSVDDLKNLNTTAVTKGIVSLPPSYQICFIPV

Cytochrome P450 2D6 = Cytochrome P450 2D6 (Homo sapiens, UniProt P10635); experiment: Inhibition of CYP2D6 (unknown origin)
Sequence of Cytochrome P450 2D6 (P10635 whole entry): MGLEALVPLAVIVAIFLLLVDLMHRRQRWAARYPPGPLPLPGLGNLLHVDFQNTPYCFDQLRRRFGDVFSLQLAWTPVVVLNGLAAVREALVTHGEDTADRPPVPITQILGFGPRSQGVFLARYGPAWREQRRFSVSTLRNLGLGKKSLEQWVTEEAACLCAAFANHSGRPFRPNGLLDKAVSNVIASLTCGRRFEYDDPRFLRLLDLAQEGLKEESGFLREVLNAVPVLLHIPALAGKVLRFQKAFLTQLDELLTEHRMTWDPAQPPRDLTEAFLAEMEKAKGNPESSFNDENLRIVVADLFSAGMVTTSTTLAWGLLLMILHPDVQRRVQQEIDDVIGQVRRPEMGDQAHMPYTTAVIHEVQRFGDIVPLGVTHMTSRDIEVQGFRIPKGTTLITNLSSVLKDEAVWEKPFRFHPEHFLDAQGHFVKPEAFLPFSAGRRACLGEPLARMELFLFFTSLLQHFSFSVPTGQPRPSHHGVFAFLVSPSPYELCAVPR

[3] = Microsomal stability in human liver microsomes assessed as half life; assay type: ADME, Microsome
[4] = Thermodynamic aqueous solubility of compound in phosphate buffer at pH 7.4 by reversed-phase ultrahigh pressure liquid chromatography; assay type: physicochemical; conditions: phosphate buffer, read-out: Therm_solubility
Cytochrome P450 2C9 = Cytochrome P450 2C9 (Homo sapiens, UniProt P11712); experiment: Inhibition of CYP2C9 (unknown origin)
Sequence of Cytochrome P450 2C9 (P11712 whole entry): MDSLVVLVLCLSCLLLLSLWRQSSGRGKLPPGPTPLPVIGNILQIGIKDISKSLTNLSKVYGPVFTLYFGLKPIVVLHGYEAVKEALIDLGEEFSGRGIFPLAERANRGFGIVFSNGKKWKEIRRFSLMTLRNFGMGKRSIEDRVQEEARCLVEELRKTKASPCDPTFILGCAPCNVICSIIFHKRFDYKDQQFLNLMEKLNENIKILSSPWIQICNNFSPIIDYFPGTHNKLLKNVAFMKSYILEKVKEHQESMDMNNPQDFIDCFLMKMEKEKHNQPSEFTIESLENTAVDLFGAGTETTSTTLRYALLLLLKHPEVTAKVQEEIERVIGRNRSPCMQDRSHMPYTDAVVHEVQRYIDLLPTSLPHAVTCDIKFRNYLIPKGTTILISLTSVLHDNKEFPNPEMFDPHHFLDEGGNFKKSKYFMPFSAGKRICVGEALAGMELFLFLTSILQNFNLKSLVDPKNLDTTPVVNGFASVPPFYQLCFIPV

Mus musculus = experiment: Expansion of interpubic ligament in estrogen-treated female C57BL/6 mouse assessed as symphysis widening at 25 mg/kg, iv administered on day 7 and measured on day 8 by microCT analysis (reference value: 17.6 %); assay type: functional; conditions: time 1 day
[5] = Clearance in Sprague-Dawley rat at 1 mg/kg, iv; assay type: ADME, organism-based; conditions: in vivo
Nav1.5 = Nav1.5 (Homo sapiens, UniProt Q14524); experiment: Inhibition of human Nav1.5 at 10 uM by patch clamp assay relative to control
Sequence of Nav1.5 (Q14524 whole entry): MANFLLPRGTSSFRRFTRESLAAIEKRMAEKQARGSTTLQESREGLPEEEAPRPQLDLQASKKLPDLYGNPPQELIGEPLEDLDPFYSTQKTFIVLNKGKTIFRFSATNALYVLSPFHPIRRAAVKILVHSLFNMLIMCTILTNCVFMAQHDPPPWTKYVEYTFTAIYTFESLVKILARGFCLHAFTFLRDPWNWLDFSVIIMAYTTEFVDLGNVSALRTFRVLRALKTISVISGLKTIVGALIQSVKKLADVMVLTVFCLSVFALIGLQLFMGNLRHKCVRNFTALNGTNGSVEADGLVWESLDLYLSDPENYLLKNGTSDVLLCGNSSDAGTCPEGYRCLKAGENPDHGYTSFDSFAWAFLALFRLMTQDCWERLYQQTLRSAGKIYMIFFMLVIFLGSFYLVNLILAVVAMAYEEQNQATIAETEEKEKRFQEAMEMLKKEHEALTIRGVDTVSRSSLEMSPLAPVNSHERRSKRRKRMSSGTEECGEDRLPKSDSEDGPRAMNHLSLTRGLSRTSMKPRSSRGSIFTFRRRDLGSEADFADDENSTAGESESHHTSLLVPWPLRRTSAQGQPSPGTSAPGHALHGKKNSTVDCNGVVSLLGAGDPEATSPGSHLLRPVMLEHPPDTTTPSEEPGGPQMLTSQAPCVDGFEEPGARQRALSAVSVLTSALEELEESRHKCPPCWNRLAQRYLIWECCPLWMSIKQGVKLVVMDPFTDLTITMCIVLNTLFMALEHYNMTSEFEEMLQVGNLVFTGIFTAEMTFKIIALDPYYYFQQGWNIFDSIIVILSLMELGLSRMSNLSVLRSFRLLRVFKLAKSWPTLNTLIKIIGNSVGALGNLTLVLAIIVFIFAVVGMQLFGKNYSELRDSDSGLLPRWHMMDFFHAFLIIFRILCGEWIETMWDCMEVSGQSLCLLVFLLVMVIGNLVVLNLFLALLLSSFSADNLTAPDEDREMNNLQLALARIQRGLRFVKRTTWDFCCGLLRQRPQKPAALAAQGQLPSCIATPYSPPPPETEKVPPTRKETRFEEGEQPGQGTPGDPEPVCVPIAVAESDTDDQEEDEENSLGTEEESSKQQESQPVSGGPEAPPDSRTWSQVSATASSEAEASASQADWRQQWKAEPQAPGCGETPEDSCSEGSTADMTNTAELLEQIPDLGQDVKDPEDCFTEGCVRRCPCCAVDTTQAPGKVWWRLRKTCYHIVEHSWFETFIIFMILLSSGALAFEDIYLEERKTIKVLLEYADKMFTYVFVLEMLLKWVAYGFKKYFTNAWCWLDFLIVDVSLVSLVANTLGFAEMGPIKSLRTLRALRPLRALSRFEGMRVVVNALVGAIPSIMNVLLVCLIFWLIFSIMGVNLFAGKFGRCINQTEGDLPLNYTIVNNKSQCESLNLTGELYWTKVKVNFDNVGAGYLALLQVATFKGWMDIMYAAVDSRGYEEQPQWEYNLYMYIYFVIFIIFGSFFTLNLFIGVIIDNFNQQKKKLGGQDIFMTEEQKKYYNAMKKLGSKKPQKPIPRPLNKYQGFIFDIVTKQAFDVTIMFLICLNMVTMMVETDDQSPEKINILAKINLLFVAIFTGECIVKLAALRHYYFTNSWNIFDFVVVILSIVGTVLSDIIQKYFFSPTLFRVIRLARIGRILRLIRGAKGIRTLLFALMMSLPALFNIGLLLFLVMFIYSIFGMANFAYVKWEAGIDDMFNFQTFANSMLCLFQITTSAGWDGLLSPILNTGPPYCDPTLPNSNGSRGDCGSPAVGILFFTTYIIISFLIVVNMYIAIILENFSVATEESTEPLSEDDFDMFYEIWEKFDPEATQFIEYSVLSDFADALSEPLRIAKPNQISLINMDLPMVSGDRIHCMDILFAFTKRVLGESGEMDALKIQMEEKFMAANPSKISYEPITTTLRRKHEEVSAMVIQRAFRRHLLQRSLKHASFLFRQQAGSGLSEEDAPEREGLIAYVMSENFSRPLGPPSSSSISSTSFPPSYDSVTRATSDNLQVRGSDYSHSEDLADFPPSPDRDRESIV

[6] = Microsomal stability in rat liver microsomes assessed as half life; assay type: ADME, Microsome
Relaxin receptor 1 = target: T3, Relaxin receptor 1 (Mus musculus, UniProt Q6R6I7); experiment: Agonist activity at mouse RXFP1 stably expressed in HEK293 cells assessed as intracellular cAMP accumulation incubated for 30 mins by HTRF assay; assay type: functional, cell-based
T3 sequence (Q6R6I7 whole entry): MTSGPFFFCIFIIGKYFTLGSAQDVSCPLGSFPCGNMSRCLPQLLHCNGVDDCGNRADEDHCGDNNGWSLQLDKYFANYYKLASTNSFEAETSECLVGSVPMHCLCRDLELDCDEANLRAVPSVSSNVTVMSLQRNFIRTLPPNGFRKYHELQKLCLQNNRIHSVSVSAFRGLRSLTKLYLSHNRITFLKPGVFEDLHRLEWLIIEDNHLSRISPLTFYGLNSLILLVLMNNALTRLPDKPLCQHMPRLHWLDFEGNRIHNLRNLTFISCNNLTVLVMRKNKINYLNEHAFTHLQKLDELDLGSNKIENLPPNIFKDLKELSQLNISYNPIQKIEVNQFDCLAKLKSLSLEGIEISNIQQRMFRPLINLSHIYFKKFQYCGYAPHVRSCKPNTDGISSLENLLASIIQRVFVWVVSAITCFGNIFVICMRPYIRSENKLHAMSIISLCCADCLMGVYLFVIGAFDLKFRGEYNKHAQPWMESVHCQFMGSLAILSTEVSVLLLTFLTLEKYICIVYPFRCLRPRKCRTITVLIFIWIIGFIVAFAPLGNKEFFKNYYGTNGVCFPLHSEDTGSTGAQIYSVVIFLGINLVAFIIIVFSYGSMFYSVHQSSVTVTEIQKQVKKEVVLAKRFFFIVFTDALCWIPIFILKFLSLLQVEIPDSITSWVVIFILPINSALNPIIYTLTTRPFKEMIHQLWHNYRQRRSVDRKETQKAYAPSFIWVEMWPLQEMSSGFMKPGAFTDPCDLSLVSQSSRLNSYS

[7] = Half life in Sprague-Dawley rat at 1 mg/kg, iv; assay type: ADME, organism-based; conditions: in vivo
L-type calcium channel = L-type calcium channel (Homo sapiens, UniProt O60840+Q01668+Q13698+Q13936); experiment: Inhibition of L-type calcium channel (unknown origin) at 10 uM by patch clamp assay relative to control

SMILES: CNC(=O)OC(C(=O)O)c1ccc(F)c(-c2ccc(OC)c(C(=O)N[C@H]3[C@@H](C(=O)Nc4ccc(F)c(C(F)(F)F)c4)[C@H]4CC[C@@H]3/C4=C\C3CC3)c2)c1 (stereo in doubt; 39)
- Vd [1]: 0.09 L/kg
- IC50 (Cytochrome P450 1A2): 4.6 µM
- Activity (Rattus norvegicus): 25%
- AUC [2]: 9.6 µM·h
- IC50 (Cytochrome P450 2C8): 2.6 µM
- IC50 (Cytochrome P450 2D6): > 20 µM
- half-life [3]: > 2 h
- solubility thermodynamic [4]: 130 µg/mL (≈ 179 µM)
- IC50 (Cytochrome P450 2C9): 4 µM
- Activity (Mus musculus): 500.4%
- clearance [5]: 2.5 mL/min/kg
- inhibition at 10 µM (Nav1.5): 59%
- half-life [6]: > 2 h
- EC50 (Relaxin receptor 1): 0.03 µM
- half-life [7]: 4.43 h
- inhibition at 10 µM (L-type calcium channel): 33%
